# How the values were obtained:
# ERRα = target: T1, ERRα (Homo sapiens, UniProt P11474); test: ERRE luciferase reporter assay in HEK293 cells transfected with pcDNA3.1 ERRα; assay type: cell-based; parameters: key to EC50 (ERRα): ***<1 μM; **1-5 μM; *>5 μM; i.a. (inactive); conditions: 24 hours treatment, luciferase activity
# T1 construct: expressed in transfected cells; host or cells: HEK293
# T1 sequence (P11474 1-423): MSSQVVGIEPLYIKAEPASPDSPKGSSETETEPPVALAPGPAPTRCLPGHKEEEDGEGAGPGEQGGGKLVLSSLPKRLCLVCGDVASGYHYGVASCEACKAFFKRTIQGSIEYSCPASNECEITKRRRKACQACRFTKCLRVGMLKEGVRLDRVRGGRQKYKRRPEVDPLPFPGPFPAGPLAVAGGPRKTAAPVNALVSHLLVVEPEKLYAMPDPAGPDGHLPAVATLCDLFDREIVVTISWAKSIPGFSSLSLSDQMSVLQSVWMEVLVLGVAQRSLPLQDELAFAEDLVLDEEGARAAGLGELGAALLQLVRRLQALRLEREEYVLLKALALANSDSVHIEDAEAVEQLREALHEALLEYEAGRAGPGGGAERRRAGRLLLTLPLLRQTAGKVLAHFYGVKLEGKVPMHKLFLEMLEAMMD
# Experimental: (§1) HEK293 cells were maintained in Dulbecco's modified Eagles medium (DMEM) supplemented with 10% fetal bovine serum at 37° C. under 5% CO2. […] Cells were transfected with ERRE reporter construct and pcDNA3.1 ERRα or ERRγ. Twenty-four-hours post-transfection, the cells were treated with vehicle or compound (various concentrations) for 24 hours (4 wells per dose). Luciferase activity was measured using the One-Glo Tox luciferase reporter assay system (Promega) and […] were calculated using GraphPad Prism software.
# ERRγ = target: T2, ERRγ (Homo sapiens, UniProt P62508); test: ERRE luciferase reporter assay in HEK293 cells transfected with pcDNA3.1 ERRγ; assay type: cell-based; parameters: key to EC50 (ERRγ): ***<1 μM; **1-5 μM; *>5 μM; i.a. (inactive); conditions: 24 hours treatment, luciferase activity
# T2 construct: expressed in transfected cells; host or cells: HEK293
# T2 sequence (P62508 1-458): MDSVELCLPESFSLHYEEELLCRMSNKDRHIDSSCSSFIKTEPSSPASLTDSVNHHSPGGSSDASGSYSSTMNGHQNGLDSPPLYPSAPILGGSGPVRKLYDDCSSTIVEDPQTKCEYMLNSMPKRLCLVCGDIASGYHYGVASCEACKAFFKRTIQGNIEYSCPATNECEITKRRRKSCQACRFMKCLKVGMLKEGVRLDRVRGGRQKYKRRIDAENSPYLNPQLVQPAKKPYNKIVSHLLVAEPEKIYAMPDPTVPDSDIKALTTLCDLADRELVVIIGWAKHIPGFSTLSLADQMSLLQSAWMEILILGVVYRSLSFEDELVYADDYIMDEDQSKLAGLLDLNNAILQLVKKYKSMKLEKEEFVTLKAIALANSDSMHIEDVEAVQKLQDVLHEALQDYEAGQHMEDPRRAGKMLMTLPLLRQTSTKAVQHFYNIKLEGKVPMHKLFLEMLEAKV
# Experimental: as §1
structure (smiles),measurement,setting,value
"Oc1ccccc1C1CC(c2cccc(OC(F)(F)F)c2)=NN1 (stereo not shown) [Entry 1, o-[3-(m-Trifluoromethoxy-phenyl)-2-pyrazolin-5-yl]phenol]",EC50,ERRα,> 5 µM
same,EC50 (ERRγ),ERRγ,i.a.
"Oc1ccccc1C1CC(c2ccncc2)=NN1 (stereo not shown) [Entry 2, 2-(3-(pyridin-4-yl)-4,5-dihydro-1H-pyrazol-5-yl)phenol]",EC50 (ERRα),ERRα,i.a.
same,EC50,ERRγ,> 5 µM
"Oc1cccc(C2=NNC(c3cccc(O)c3)C2)c1 (stereo not shown) [Entry 3, 3,3′-(4,5-dihydro-1H-pyrazole-3,5-diyl)diphenol]",EC50,ERRα,1 to 5 µM
same,EC50,ERRγ,1 to 5 µM
"Oc1ccccc1C1CC(c2ccccc2OC(F)(F)F)=NN1 (stereo not shown) [Entry 4, 2-(3-(2-(trifluoromethoxy)phenyl)-4,5-dihydro-1H-pyrazol-5-yl)phenol]",EC50 (ERRα),ERRα,i.a.
same,EC50 (ERRγ),ERRγ,i.a.
"Oc1cccc(C2CC(c3cc(C(F)(F)F)cc(C(F)(F)F)c3)=NN2)c1 (stereo not shown) [Entry 5, 3-(3-(3,5-bis(trifluoromethyl)phenyl)-4,5-dihydro-1H-pyrazol-5-yl)phenol]",EC50 (ERRα),ERRα,i.a.
same,EC50 (ERRγ),ERRγ,i.a.
"Oc1ccccc1C1CC(c2cc(C(F)(F)F)cc(C(F)(F)F)c2)=NN1 (stereo not shown) [Entry 6, 2-(3-(3,5-bis(trifluoromethyl)phenyl)-4,5-dihydro-1H-pyrazol-5-yl)phenol]",EC50 (ERRα),ERRα,i.a.
same,EC50 (ERRγ),ERRγ,i.a.
"Oc1ccc(C2CC(c3ccc(Cl)cc3)=NN2)cc1 (stereo not shown) [Entry 7, 4-(3-(4-Chlorophenyl)-4,5-dihydro-1H-pyrazol-5-yl)phenol]",EC50,ERRα,> 5 µM
same,EC50,ERRγ,> 5 µM
"Oc1ccc(C2CC(c3cc(C(F)(F)F)cc(C(F)(F)F)c3)=NN2)cc1 (stereo not shown) [Entry 9, 4-(3-(3,5-bis(trifluoromethyl)phenyl)-4,5-dihydro-1H-pyrazol-5-yl)phenol]",EC50 (ERRα),ERRα,i.a.
same,EC50 (ERRγ),ERRγ,i.a.
"Oc1cccc(C2CC(c3ccc(Cl)cc3)=NN2)c1 (stereo not shown) [Entry 10, 3-(3-(4-Chlorophenyl)-4,5-dihydro-1H-pyrazol-5-yl)phenol]",EC50,ERRα,1 to 5 µM
same,EC50,ERRγ,< 1 µM
"CC(=O)N1N=C(c2ccc(Br)cc2)CC1c1ccccc1O (stereo not shown) [Entry 12, 1-(3-(4-Bromophenyl)-5-(2-hydroxyphenyl)-4,5-dihydro-1H-pyrazol-1-yl)ethan-1-one]",EC50 (ERRα),ERRα,i.a.
same,EC50 (ERRγ),ERRγ,i.a.
"COc1cccc(C2=NN(C(C)=O)C(c3ccccc3O)C2)c1 (stereo not shown) [Entry 13, 1-(5-(2-Hydroxyphenyl)-3-(3-methoxyphenyl)-4,5-dihydro-1H-pyrazol-1-yl)ethan-1-one]",EC50 (ERRα),ERRα,i.a.
same,EC50 (ERRγ),ERRγ,i.a.
"CC(=O)N1N=C(c2cccc(C)c2)CC1c1ccccc1O (stereo not shown) [Entry 14, 1-(5-(2-Hydroxyphenyl)-3-(m-tolyl)-4,5-dihydro-1H-pyrazol-1-yl)ethan-1-one]",EC50 (ERRα),ERRα,i.a.
same,EC50 (ERRγ),ERRγ,i.a.
"CC(=O)N1N=C(c2ccccc2O)CC1c1ccccc1O (stereo not shown) [Entry 15, 1-(3,5-bis(2-hydroxyphenyl)-4,5-dihydro-1H-pyrazol-1-yl)ethan-1-one]",EC50 (ERRα),ERRα,i.a.
same,EC50 (ERRγ),ERRγ,i.a.
"CC(=O)N1N=C(c2ccccc2Cl)CC1c1ccccc1O (stereo not shown) [Entry 16, 1-(3-(2-Chlorophenyl)-5-(2-hydroxyphenyl)-4,5-dihydro-1H-pyrazol-1-yl)ethan-1-one]",EC50 (ERRα),ERRα,i.a.
same,EC50 (ERRγ),ERRγ,i.a.
"Oc1ccccc1C1CC(c2cccs2)=NN1 (stereo not shown) [Entry 17, 2-(3-(Thiophen-2-yl)-4,5-dihydro-1H-pyrazol-5-yl)phenol]",EC50,ERRα,> 5 µM
same,EC50,ERRγ,> 5 µM
"Oc1cccc(C2CC(c3ccccc3O)=NN2)c1 (stereo not shown) [Entry 18, 2-(5-(3-Hydroxyphenyl)-4,5-dihydro-1H-pyrazol-3-yl)phenol]",EC50,ERRα,1 to 5 µM
same,EC50,ERRγ,1 to 5 µM
"FC(F)(F)c1cc(C2=NNC(c3ccc4ccccc4c3)C2)cc(C(F)(F)F)c1 (stereo not shown) [Entry 20, 3-(3,5-bis(trifluoromethyl)phenyl)-5-(naphthalen-2-yl)-4,5-dihydro-1H-pyrazole]",EC50 (ERRα),ERRα,i.a.
same,EC50 (ERRγ),ERRγ,i.a.
"Oc1ccccc1C1=NNC(c2ccc3ccccc3c2)C1 (stereo not shown) [Entry 21, 2-(5-(Naphthalen-2-yl)-4,5-dihydro-1H-pyrazol-3-yl)phenol]",EC50 (ERRα),ERRα,i.a.
same,EC50,ERRγ,< 1 µM
"CCc1ccccc1C1CC(c2ccccc2O)=NN1 (stereo not shown) [Entry 22, 2-(5-(2-Ethylphenyl)-4,5-dihydro-1H-pyrazol-3-yl)phenol]",EC50 (ERRα),ERRα,i.a.
same,EC50 (ERRγ),ERRγ,i.a.
"Cc1cccc(C2=NNC(c3ccccc3O)C2)c1 (stereo not shown) [Entry 23, 2-(3-(m-Tolyl)-4,5-dihydro-1H-pyrazol-5-yl)phenol]",EC50,ERRα,< 1 µM
same,EC50,ERRγ,1 to 5 µM
"Oc1ccccc1C1CC(c2ccc(Br)cc2)=NN1 (stereo not shown) [Entry 24, 2-(3-(4-Bromophenyl)-4,5-dihydro-1H-pyrazol-5-yl)phenol]",EC50,ERRα,< 1 µM
same,EC50,ERRγ,< 1 µM
"Oc1ccccc1C1CC(c2ccccn2)=NN1 (stereo not shown) [Entry 25, 2-(3-(Pyridin-2-yl)-4,5-dihydro-1H-pyrazol-5-yl)phenol]",EC50,ERRα,> 5 µM
same,EC50,ERRγ,> 5 µM
"Oc1ccccc1C1CC(c2cccnc2)=NN1 (stereo not shown) [Entry 26, 2-(3-(Pyridin-3-yl)-4,5-dihydro-1H-pyrazol-5-yl)phenol]",EC50,ERRα,> 5 µM
same,EC50,ERRγ,> 5 µM
"Cc1ccccc1C1=NNC(c2ccccc2O)C1 (stereo not shown) [Entry 27, 2-(3-(o-Tolyl)-4,5-dihydro-1H-pyrazol-5-yl)phenol]",EC50 (ERRα),ERRα,i.a.
same,EC50 (ERRγ),ERRγ,i.a.
"Cc1ccc(C2=NNC(c3ccccc3O)C2)cc1 (stereo not shown) [Entry 28, 2-(3-(p-tolyl)-4,5-dihydro-1H-pyrazol-5-yl)phenol]",EC50 (ERRα),ERRα,i.a.
same,EC50 (ERRγ),ERRγ,i.a.
"Oc1ccccc1C1CC(c2cccc(Br)c2)=NN1 (stereo not shown) [Entry 29, 2-(3-(3-Bromophenyl)-4,5-dihydro-1H-pyrazol-5-yl)phenol]",EC50,ERRα,> 5 µM
same,EC50,ERRγ,> 5 µM
"Oc1ccccc1C1=NNC(c2ccccc2O)C1 (stereo not shown) [Entry 30, 2,2′-(4,5-Dihydro-1H-pyrazole-3,5-diyl)diphenol]",EC50,ERRα,> 5 µM
same,EC50,ERRγ,> 5 µM
"Oc1ccccc1C1CC(c2cccc(F)c2)=NN1 (stereo not shown) [Entry 31, 2-(3-(3-Fluorophenyl)-4,5-dihydro-1H-pyrazol-5-yl)phenol]",EC50,ERRα,1 to 5 µM
same,EC50,ERRγ,> 5 µM
"Oc1c(F)cccc1C1CC(c2ccc(Br)cc2)=NN1 (stereo not shown) [Entry 32, 2-(3-(4-Bromophenyl)-4,5-dihydro-1H-pyrazol-5-yl)-6-fluorophenol]",EC50 (ERRα),ERRα,i.a.
same,EC50 (ERRγ),ERRγ,i.a.
"Oc1ccccc1C1CC(c2ccccc2)=NN1 (stereo not shown) [Entry 34, 2-(3-Phenyl-4,5-dihydro-1H-pyrazol-5-yl)phenol]",EC50,ERRα,> 5 µM
same,EC50,ERRγ,1 to 5 µM
"Oc1c(Br)cccc1C1CC(c2ccc(Br)cc2)=NN1 (stereo not shown) [Entry 35, 2-Bromo-6-(3-(4-bromophenyl)-4,5-dihydro-1H-pyrazol-5-yl)phenol]",EC50,ERRα,1 to 5 µM
same,EC50,ERRγ,1 to 5 µM
"COc1cccc(C2CC(c3ccc(Br)cc3)=NN2)c1O (stereo not shown) [Entry 36, 2-(3-(4-Bromophenyl)-4,5-dihydro-1H-pyrazol-5-yl)-6-methoxyphenol]",EC50,ERRα,< 1 µM
same,EC50,ERRγ,< 1 µM
"Nc1ccccc1C1CC(c2ccccc2)=NN1 (stereo not shown) [Entry 37, 2-(3-Phenyl-4,5-dihydro-1H-pyrazol-5-yl)aniline]",EC50,ERRα,< 1 µM
same,EC50,ERRγ,< 1 µM
"Cc1ccc(C2CC(c3ccccc3)=NN2)c(O)c1 (stereo not shown) [Entry 38, 5-Methyl-2-(3-phenyl-4,5-dihydro-1H-pyrazol-5-yl)phenol]",EC50,ERRα,1 to 5 µM
same,EC50,ERRγ,1 to 5 µM
"Cc1ccc(O)c(C2CC(c3ccccc3)=NN2)c1 (stereo not shown) [Entry 39, 4-Methyl-2-(3-phenyl-4,5-dihydro-1H-pyrazol-5-yl)phenol]",EC50,ERRα,< 1 µM
same,EC50,ERRγ,< 1 µM
"Oc1ccccc1C1CC(c2ccc(C(F)(F)F)cc2)=NN1 (stereo not shown) [Entry 40, 2-(3-(4-(Trifluoromethyl)phenyl)-4,5-dihydro-1H-pyrazol-5-yl)phenol]",EC50,ERRα,< 1 µM
same,EC50,ERRγ,1 to 5 µM
"Oc1ccccc1C1CC(c2ccc(OC(F)(F)F)cc2)=NN1 (stereo not shown) [Entry 41, 2-(3-(4-(Trifluoromethoxy)phenyl)-4,5-dihydro-1H-pyrazol-5-yl)phenol]",EC50,ERRα,< 1 µM
same,EC50,ERRγ,< 1 µM
"COc1ccc(C2=NNC(c3ccccc3O)C2)cc1 (stereo not shown) [Entry 42, 2-(3-(4-Methoxyphenyl)-4,5-dihydro-1H-pyrazol-5-yl)phenol]",EC50,ERRα,< 1 µM
same,EC50,ERRγ,< 1 µM
